These results are taken from US20230038201A1, “TRANSFER FILM, PHOTOSENSITIVE MATERIAL, PATTERN FORMING METHOD, MANUFACTURING METHOD OF CIRCUIT BOARD, AND MANUFACTURING METHOD OF TOUCH PANEL” (FUJIFILM Corporation, priority 2020, published 2023).

This series is described as follows: physchem.

Description: Co., Ltd. In a case where the compound β was a nitrogen-containing aromatic compound, the pKa of the compound β in a ground state is intended to be a pKa of a conjugate acid of the compound β.
0.1 g of the compound β was dissolved in 20 ml of methanol, and 20 ml of ultrapure water was added thereto. This mixture was titrated using a 0.1 N-HCL aqueous solution, and the pH at ½ of the titration amount required up to the equivalence point was defined as the pKa (pKa of the compound β in a ground state).

The term pKa denotes the negative logarithm of the acid dissociation constant. For `Nc1ccncc1` [Example B13, 4-aminopyridine], the pKa came to 9.2.
